Data reported in patent US6964957B2, “Fused pyrazole compounds, pharmaceutical compositions, and methods for modulating or inhibiting ERAB or HADH2 activity” (Agouron Pharmaceuticals, Inc., priority 2000, dated 2005).
pIC50: −log10 of the molar value.

Key:
[1] = target: T1, ERAB (L-3-hydroxyacyl-CoA dehydrogenase) (Homo sapiens, UniProt Q99714); assay: ERAB enzyme assay (loss of NADH absorbance at 340 nm, acetoacetyl-CoA as substrate); assay type: biochemical; conditions: 2.5 nM enzyme preincubated with inhibitor 400 seconds at 30° C., pH 7.5, 36 uM NADH, 2% DMSO; started with acetoacetyl-CoA (38 uM)
T1 sequence (Q99714 1-261): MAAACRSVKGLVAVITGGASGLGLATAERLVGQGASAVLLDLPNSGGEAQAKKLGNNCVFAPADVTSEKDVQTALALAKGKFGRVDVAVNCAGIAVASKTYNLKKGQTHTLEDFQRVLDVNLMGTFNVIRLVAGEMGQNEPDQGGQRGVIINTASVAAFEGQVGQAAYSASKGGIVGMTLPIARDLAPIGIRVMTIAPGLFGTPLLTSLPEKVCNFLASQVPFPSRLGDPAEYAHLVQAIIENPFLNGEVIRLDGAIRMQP
Method: The activity of ERAB (L-3-hydroxyacyl-CoA dehydrogenase) in the reverse direction was determined by a modified version of a method previously described (Binstock et al., Methods Enzymol., 71, 403-411 (1981)). This method is based on the enzyme-catalyzed loss of NADH absorbance at 340 nm with a change in the millimolar extinction coefficient of 6.22 mM^−1 cm^−1. The IC50 value for compounds of the Formula I were determined spectrophotometrically by monitoring the […] with acetoacetyl-CoA as substrate and are reported in Table 1. Assay conditions were 25 mM MOPS, 250 mM NaCl, 2% DMSO, 2.5 mM TCEP, pH 7.5, 30° C. NADH and ERAB were included at 40 uM and 2.5 nM, respectively. Stock solutions of ERAB, prepared in assay buffer, were 1 uM and contained 100 uM NADH for enzyme stability. The assay was run as follows: Enzyme (2.5 nM) was preincubated with inhibitor (without acetoacetyl-CoA present) for 400 seconds at 30° C. in the presence of 36 uM NADH, 25 mM MOPS, pH 7.5, 250 mM NaCl, 2%(v/v) DMSO, and 2.5 mM TCEP. The reaction was initiated by addition of substrate (acetoacetyl-CoA) (38 uM). Reduction of NADH was monitored at 340λ. Initial rates were calculated over a time frame where less than 10% of substrates had been consumed in an uninhibited reaction. For Ki, app determination, inhibitors were added during the preincubation stage from DMSO stock solutions for a final and constant 2% DMSO concentration. Initial rates were calculated and fitted, using non-linear fitting techniques, to the Michaelis equation for enzyme inhibition. The IC50 value was determined by non-linear regression analysis using KaleidaGraph (obtained from Synergy Software, Reading, Pa.).

pIC50 [1]	melting point	Structure (SMILES)
6.52	114 to 118 °C	COc1ccc(N2CCN(C(=O)C(c3ccccc3)n3cnc4[nH]ncc4c3=S)CC2)cc1 (stereo not shown) [XVIk, 1-[4-(4-Methoxy-phenyl)-piperazin-1-yl]-2-phenyl-2-(4-thioxo-1,4-dihydro-pyrazolo[3,4-d]pyrimidin-5-yl)-ethanone]
4.66	170 to 174 °C	CC(c1ccccc1)n1cnc2[nH]ncc2c1=S (stereo not shown) [LVIIIa, 5-(1-Phenyl-ethyl)-1,5-dihydro-pyrazolo[3,4-d]pyrimidine-4-thione]
7.29	–	O=C(C(c1cccc(O)c1)n1cnc2[nH]ncc2c1=S)N1CCCCCC1 (stereo not shown) [XXVc]
7.09	155 to 160 °C	O=C(C(c1ccccc1)n1cnc2[nH]ncc2c1=S)N1CCC(O)(c2ccc(Br)cc2)CC1 (stereo not shown) [XVIg]
3.31	210 to 214 °C	CC(c1ccccc1)n1cnc2[nH]ncc2c1=O (stereo not shown) [LVII, 5-(1-Phenyl-ethyl)-1,5-dihydro-pyrazolo[3,4-d]pyrimidine-4-one]
7.03	143 to 146 °C	CCN(CC)C(=O)C(c1ccccc1)n1cnc2[nH]ncc2c1=S (stereo not shown) [XVIr, N,N-Diethyl-2-phenyl-2-(4-thioxo-1,4-dihydro-pyrazolo[3,4-d]pyrimidin-5-yl)-acetamide]
4.96	–	C=CCOc1cccc(C(C(=O)OC2CCCCC2)n2cnc3[nH]ncc3c2=S)c1 (stereo not shown) [XXIII]
7.02	92 to 95 °C	O=C(C(c1ccccc1)n1cnc2[nH]ncc2c1=S)N1CCCCCCC1 (stereo not shown) [XVIe, 1-Azocan-1-yl-2-phenyl-2-(4-thioxo-1,4-dihydro-1,4-dihydropyrazolo[3,4-d]pyrimidin-5-yl)-ethanone]
5.55	–	CCN(C(=O)C(c1ccccc1)n1cnc2[nH]ncc2c1=S)C(C)C (stereo not shown) [XVIq, N-Ethyl-N-isopropyl-2-phenyl-2-(4-thioxo-1,4-dihydro-pyrazolo[3,4d]pyrimidin-5-yl)-acetamide]
7.09	142 to 146 °C	O=C(C(c1ccccc1)n1cnc2[nH]ncc2c1=S)N1CCC(O)(c2ccccc2)CC1 (stereo not shown) [XVIf, 1-(4-Hydroxy-4-phenyl-piperidin-1-yl)-2phenyl-2-(4-thioxo-1,4-dihydro-1,4-dihydro-pyrazolo[3,4-d]pyrimidin-5-yl)-ethanone]
5.82	82 to 86 °C	CON(C)C(=O)C(c1ccccc1)n1cnc2[nH]ncc2c1=S (stereo not shown) [XVIb, N-Methoxy-N-methyl-2-phenyl-2-(4-thioxo-1,4-dihydro-1,4-dihydro-pyrazolo[3,4-d]pyrimidin-5-yl)-ethanone]
6.41	242 to 246 °C	O=C(C(c1ccccc1)n1cnc2[nH]ncc2c1=S)N1CCN(c2ccccn2)CC1 (stereo not shown) [XVIi, 2-Phenyl-1-(4-pyridin-2-yl-piperazin-1-yl)-2-(4-thioxo-1,4-dihydro-pyrazolo[3,4-d]pyrimidin-5-yl)-ethanone]
5.15	–	O=C(C(c1ccccc1)n1cnc2[nH]ncc2c1=O)N1CCCCCC1 (stereo not shown) [L]
–	98 to 102 °C	CCCCC1(O)CCN(C(=O)C(c2ccccc2)n2cnc3[nH]ncc3c2=S)CC1 (stereo not shown) [XVIn, 1-(4-Butyl-4-hydroxy-piperidin-1-yl)-2-phenyl-2-(4-thioxo-1,4-dihydro-pyrazolo[3,4-d]pyrimidin-5-yl)-ethanone]
7.01	–	O=C(C(c1ccccc1)n1cnc2[nH]ncc2c1=S)N1CCCCCC1 (stereo not shown) [XVIa, 1-Azepan-1-yl-2-phenyl-2-(4-thioxo-1,4-dihydro-1,4-dihrdropyrazolo[3,4-d]pyrimidin-5-yl)-ethanone]
6.46	75 to 80 °C	C=CCOc1cccc(C(C(=O)N2CCCCCC2)n2cnc3[nH]ncc3c2=S)c1 (stereo not shown) [XVIt, 2-(3-Allyoxy-phenyl)-1-azepan-1-yl-2-(4-thioxo-1,4-dihydro-pyrazolo[3,4-d]pyrimidin-5-yl)-ethanone]
6.66	241 to 245 °C	O=C(C(c1ccccc1)n1cnc2[nH]ncc2c1=S)N1CCN(c2ccccc2)CC1 (stereo not shown) [XVIj, 2-Phenyl-1-(4-phenyl-2-yl-piperazin-1-yl)-2-(4-thioxo-1,4-dihydro-pyrazolo[3,4-d]pyrimidin-5-yl)-ethanone]
6.68	140 to 144 °C	CC1(O)CCN(C(=O)C(c2ccccc2)n2cnc3[nH]ncc3c2=S)CC1 (stereo not shown) [XVIp, 1-(4-Methyl-4-hydroxy-piperidin-1-yl)-2-phenyl-2-(4-thioxo-1,4-dihydro-pyrazolo[3,4-d]pyrimidin-5-yl)-ethanone]
5.74	–	O=C(C(c1ccccc1)n1cnc2[nH]ncc2c1=S)N1CCCC(O)C1 (stereo not shown) [XVIc, 1-(3-Hydroxy-piperidin-1-yl)-2-phenyl-2-(4-thioxo-1,4-dihydro-1,4-dihydro-pyrazolo[3,4-d]pyrimidin-5-yl)-ethanone]
6.39	116 to 120 °C	C=CCOc1cccc(C(C(=O)N2CCC(O)(c3ccccc3)CC2)n2cnc3[nH]ncc3c2=S)c1 (stereo not shown) [XVIs, 2-(3-Allyoxy-phenyl)-1-(4-hydroxy-4-phenyl-piperidin-1-yl)-2-(4-thioxo-1,4-dihydro-pyrazolo[3,4-d]pyrimidin-5-yl)-ethanone]
3.29	95 to 98 °C	O=C(O)C(c1ccccc1)n1cnc2[nH]ncc2c1=S (stereo not shown) [XIVa, 2-Phenyl-(4-thioxo-1,4-dihydro-pyrazolo [3,4-d]pyrimidin-5-yl)acetic acid]
6.12	–	CC(=O)C1(c2ccccc2)CCN(C(=O)C(c2ccccc2)n2cnc3[nH]ncc3c2=S)CC1 (stereo not shown) [XVIh, 1-(4-Acetyl-4-phenyl-piperidin-1-yl)-2-phenyl-2-(4-thioxo-1,4-dihydro-pyrazolo[3,4-d]pyrimidin-5-yl)-ethanone]
4.52	176 to 180 °C	O=C(OC1CCCCC1)C(c1ccccc1)n1cnc2[nH]ncc2c1=O (stereo not shown) [XIa, (4-Oxo-1,4-dihydro-pyrazolo[3,4-d]pyrimidin-5-yl)-phenyl-acetic acid cyclohexyl ester]
5.92	170 to 173 °C	O=C(OC1CCCCC1)C(c1ccccc1)n1cnc2[nH]ncc2c1=S (stereo not shown) [XIIa, 2-Phenyl-(4-thioxo-1,4-dihydro-pyrazolo[3,4-d]pyrimidin-5-yl)-acetic acid cyclohexyl ester]
6.55	138 to 142 °C	O=C(C(c1ccccc1)n1cnc2[nH]ncc2c1=S)N1CCC(O)(c2ccccn2)CC1 (stereo not shown) [XVIm, 1-(4-Hydroxy-3′,4′,5′,6′-tetrahydro-2H-[2,4]bipyridinyl-1′-yl]-2-phenyl-2-(4-thioxo-1,4-dihydro-pyrazolo[3,4-d]pyrimidin-5-yl)-ethanone]
7.15	–	CCCCC1(O)CCN(C(=O)C(c2ccccc2)n2cnc3[nH]ncc3c2=S)CC1 (stereo not shown) [XXVd]
6.11	–	O=C(C(c1ccccc1)n1cnc2[nH]ncc2c1=S)N1CCCCC1 (stereo not shown) [XXVa]
6.13	–	CN(C(=O)C(c1ccccc1)n1cnc2[nH]ncc2c1=S)c1ccccc1 (stereo not shown) [XXVe]
6.67	–	O=C(C(c1ccccc1)n1cnc2[nH]ncc2c1=S)N1CCC(c2ccccc2)CC1 (stereo not shown) [XXVb]
